Data on two compounds can be found in US9168278B2, “Use for cannabinoid” (GW Pharma Limited, priority 2004, dated 2015).

As a reminder, the EC50 is the concentration that produces a half-maximal response. Broadly, the Ki is a dissociation constant, usually derived from enzyme kinetics or from competition with a known ligand.

The structures appear in SMILES notation. Read-outs that look alike come from different tables or passages of the source. Where only a bound is given, the exact number is not on record here.

Assay [1] has as its target T1, CB1 receptors (mouse brain membranes) (Mus musculus, UniProt P47746).
T1 construct: membranes prepared from healthy brain tissue, which is densely populated with CB1 but not CB2 receptors; from tissue; host or cells: mouse brain membranes
Briefly: Radioligand displacement assay, mouse brain membranes. In kind it is binding. As for the experimental part:
Experiments were performed with membranes prepared from healthy brain tissue, which is densely populated with CB1 but not CB2 receptors (reviewed in Howlett et al. 2002).
Binding was initiated by the addition of either the brain membranes (33 μg protein per tube) or the transfected hCB2 cells (25 μg protein per tube).
All assays were performed at 37° C. for 60 min before termination by addition of ice-cold wash buffer (50 mM Tris buffer, 1 mg ml^−1 bovine serum albumin, pH 7.4) and vacuum filtration using a 24-well sampling manifold and GF/B filters that had been soaked in wash buffer at 4° C. for at least 24 h.
Each reaction tube was washed six times with a 1.2 ml aliquot of wash buffer. The filters were oven-dried for 60 min and then placed in 5 ml of scintillation fluid. Radioactivity was quantified by liquid scintillation spectrometry.
Specific binding was defined as the difference between the binding that occurred in the presence and absence of 1 μM unlabelled CP55940. THCV was stored as a stock solution of 10 mM in DMSO, the vehicle concentration in all assay tubes being 0.1% DMSO.
Values are expressed as means and variability as s.e.mean or as 95% confidence limits. […] Its dissociation constant (Ki value) was calculated using the equation of Cheng & Prusoff (1973).
For orientation: In a radioligand displacement assay an active substance lowers the binding of a labelled ligand.

For assay [2], the target named is T2, hCB2 receptors (CHO cells transfected with hCB2) (Homo sapiens, UniProt P34972).
T2 construct: expressed in transfected cells; host or cells: CHO cells
The assay can be described thus: Radioligand displacement assay, CHO-hCB2 cell membranes. Particulars: Cheng & Prusoff, read-out: mean Ki, displacement of [3H]CP55940 from specific binding sites.

Assay [3] addresses T3, cannabinoid CB1 receptors (mouse brain membranes) (Mus musculus, UniProt P47746).
T3 construct: membranes prepared from healthy brain tissue, which is densely populated with CB1 but not CB2 receptors; from tissue; host or cells: mouse brain membranes
Briefly: [35S]GTPγS binding assay, mouse brain membranes. Format: biochemical. Particulars: for Kb: Mean apparent KB, brain membranes, THCV 1000 nM. As for the experimental part: (§1) The assays were carried out with GTPγS binding buffer (50 mM Tris-HCl; 50 mM Tris-Base; 5 mM MgCl2; 1 mM EDTA; 100 mM NaCl; 1 mM DTT; 0.1% BSA) in the presence of [^35S]GTPγS and GDP, in a final volume of 500 μl. Binding was initiated by the addition of [^35S]GTPγS to the tubes. Nonspecific binding was measured in the presence of 30 μM GTPγS.
(§2) The drugs were incubated in the assay for 60 min at 30° C. The reaction was terminated by a rapid vacuum filtration method using Tris buffer (50 mM Tris-HCl; 50 mM Tris-Base; 0.1% BSA), and the radioactivity was quantified by liquid scintillation spectrometry.
The concentrations of [^35S]GTPγS and GDP present in the assay varied depending on whether the assay was conducted with mouse brain or transfected cell membranes.
Additionally, mouse brain membranes were preincubated for 30 minutes at 30° C. with 0.5 U ml^−1 adenosine deaminase to remove endogenous adenosine. Agonists and antagonists were stored as a stock solution of 1 or 10 mM in DMSO, the vehicle concentration in all assay tubes being 0.11% DMSO.
(§3) The apparent dissociation constant (KB) values for antagonism of agonists by THCV in the vas deferens or [^35S]GTPγS binding assay have been calculated by Schild analysis from the concentration ratio, defined as the concentration of an agonist that elicits a response of a particular size in the presence of a competitive reversible antagonist at a concentration, B, divided by the concentration of the same agonist that produces an identical response in the absence of the antagonist.
Mean values have been compared using Student's two-tailed t-test for unpaired data or one-way analysis of variance (ANOVA) followed by Dunnett's test (GraphPad Prism). A P-value <0.05 was considered to be significant.
(GTPγS resists hydrolysis and so accumulates on activated G proteins.)

Assay [4] has as its target T4, transfected cannabinoid CB2 receptors (CHO-hCB2 cell membranes) (Homo sapiens, UniProt P34972).
T4 construct: expressed in transfected cells; host or cells: CHO cells
Briefly: [35S]GTPγS binding assay, CHO-hCB2 cell membranes. In kind it is biochemical. As for the experimental part:
The conditions used for measuring agonist-stimulated [^35S]GTPγS binding to transfected cannabinoid CB2 receptors were adapted from those used by MacLennan et al. (1998) and Griffin et al. (1999).
as §1, §2
The concentrations of [^35S]GTPγS and GDP present in the assay varied depending on whether the assay was conducted with mouse brain or transfected cell membranes. […]
Net agonist-stimulated [^35S]GTPγS binding values were calculated by subtracting basal binding values (obtained in the absence of agonist) from agonist-stimulated values (obtained in the presence of agonist) as detailed elsewhere (Ross et al., 1999a). […]

For assay [5], the system named is mouse isolated vas deferens. The assay can be described thus: Electrically-evoked contractions of the mouse isolated vas deferens. The protocol:
Experiments were also carried out with the mouse isolated vas deferens, a tissue in which cannabinoid receptor agonists such as R-(+)-WIN55212, CP55940, THC and 2-arachidonoyl ethanolamide (anandamide) can inhibit electrically-evoked contractions (Devane et al., 1992; Pertwee et al., 1995).
Cannabinoid receptor agonists are thought to inhibit the electrically evoked contractions by acting on prejunctional neuronal cannabinoid CB1 receptors to inhibit release of the contractile neurotransmitters, ATP, (acting on postjunctional P2X purinoceptors), and noradrenaline, (acting on postjunctional α1-adrenoceptors), (Trendelenberg et al., 2000).
(§4) Vasa deferentia were obtained from albino MF1 mice weighing 31 to 59 g. The tissues were mounted vertically in 4 ml organ baths. They were then subjected to electrical stimulation of progressively greater intensity followed by an equilibration procedure in which they were exposed to alternate periods of stimulation (2 min) and rest (10 min) until contractions with consistent amplitudes were obtained (Thomas et al., 2004). These contractions were monophasic and isometric and were evoked by 0.5 s trains of pulses of 110% maximal voltage (train frequency 0.1 Hz; pulse frequency 5 Hz; pulse duration 0.5 ms).
Except in experiments with phenylephrine, all drug additions were made to the organ baths after the equilibration period and there was no washout between these additions. In most experiments there was an initial application of a potential antagonist or its vehicle. This was followed 28 min later by a 2 min period of electrical stimulation at the end of which the lowest of a series of concentrations of the twitch inhibitors, R-(+)-WIN55212, CP55940, THC, anandamide, (−)-7-hydroxy-cannabidiol-dimethylheptyl or clonidine, was applied.
After a period of rest, the tissues were electrically stimulated for 2 min and then subjected to a further addition of twitch inhibitor.
This cycle of drug addition, rest and 2 min stimulation was repeated so as to construct cumulative concentration-response curves. Only one concentration-response curve was constructed per tissue. Rest periods were 3 min for clonidine, 13 min for R-(+)-WIN55212, CP55940 and anandamide, 28 min for THC and THCV, and 58 min for (−)-7-hydroxy-cannabidiol-dimethylheptyl.
Experiments were also performed with capsaicin. This drug was added at intervals of 3 min and the tissues were not rested from electrical stimulation between these additions.
In some experiments, cumulative concentration-response curves for THCV were constructed without prior addition of any other compound, again using a cycle of drug addition, 28 min rest and 2 min stimulation.
(§5) Inhibition of the electrically-evoked twitch response of the vas deferens has been expressed in percentage terms and this has been calculated by comparing the amplitude of the twitch response after each addition of a twitch inhibitor with its amplitude immediately before the first addition of the inhibitor. Contractile responses to phenylephrine and β,γ-methylene-ATP have been expressed as increases in tension (g).
Values for EC50, for maximal effect (Emax) and for the s.e.mean or 95% confidence limits of these values have been calculated by nonlinear regression analysis using the equation for a sigmoid concentration-response curve (GraphPad Prism).
as §3
Mean values have been compared using Student's two-tailed t-test for unpaired data or one-way analysis of variance (ANOVA) followed by Dunnett's test (GraphPad Prism). […]

Assay [6] has as its system mouse isolated vas deferens (P2 receptor agonist β,γ-methylene-ATP). Briefly: Contractile responses of the vas deferens to β,γ-methylene-ATP. The note with it: for contractions induced by β,γ-methylene-ATP: at 1 μM. As for the experimental part:
as §4
In experiments with β,γ-methylene-ATP, no electrical stimuli were applied after the equilibration procedure. Log concentration-response curves of β,γ-methylene-ATP were constructed cumulatively without washout. THCV, WIN or drug vehicle were added 30 min before the first addition of β,γ-methylene-ATP, each subsequent addition of which was made immediately after the effect of the previous dose had reached a plateau (dose cycles of 1 to 2 min).
as §5

Assay [7] relates to mouse isolated vas deferens (α1-adrenoceptor agonist phenylephrine hydrochloride). Briefly: Contractile responses of the vas deferens to phenylephrine. The note with it: for contractions induced by phenylephrine: at 1 μM. As for the experimental part:
as §4
Only one addition of phenylephrine was made to each tissue and this was carried out 30 min after the addition of THCV, WIN or drug vehicle.
as §5

T1 sequence (P47746 whole entry): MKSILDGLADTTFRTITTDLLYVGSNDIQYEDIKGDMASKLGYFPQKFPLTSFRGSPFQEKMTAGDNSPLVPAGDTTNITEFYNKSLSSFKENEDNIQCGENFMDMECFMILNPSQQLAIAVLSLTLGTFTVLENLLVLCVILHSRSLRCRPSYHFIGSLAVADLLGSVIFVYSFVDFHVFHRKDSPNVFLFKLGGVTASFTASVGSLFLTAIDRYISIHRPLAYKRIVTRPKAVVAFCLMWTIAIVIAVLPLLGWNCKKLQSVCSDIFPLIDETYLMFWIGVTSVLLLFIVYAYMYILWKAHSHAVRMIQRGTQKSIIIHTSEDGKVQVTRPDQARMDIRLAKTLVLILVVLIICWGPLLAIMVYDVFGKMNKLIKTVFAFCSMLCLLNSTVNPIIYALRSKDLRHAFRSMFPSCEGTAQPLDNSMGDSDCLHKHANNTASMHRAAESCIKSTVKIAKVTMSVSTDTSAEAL
T3 sequence (P47746 whole entry): as above
T4 sequence (P34972 whole entry): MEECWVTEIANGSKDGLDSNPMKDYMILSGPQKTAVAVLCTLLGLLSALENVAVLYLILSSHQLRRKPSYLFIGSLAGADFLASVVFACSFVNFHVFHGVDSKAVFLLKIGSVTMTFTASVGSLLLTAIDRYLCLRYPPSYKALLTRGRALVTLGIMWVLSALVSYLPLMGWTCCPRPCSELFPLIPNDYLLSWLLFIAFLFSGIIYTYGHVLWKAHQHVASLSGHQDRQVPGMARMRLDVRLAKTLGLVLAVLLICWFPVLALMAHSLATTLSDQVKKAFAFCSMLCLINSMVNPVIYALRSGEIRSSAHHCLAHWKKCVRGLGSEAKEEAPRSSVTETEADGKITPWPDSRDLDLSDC
T2 sequence (P34972 whole entry): as above

Take `CCCc1cc(O)c2c(c1)OC(C)(C)[C@@H]1CCC(C)=C[C@@H]21` [THCV, tetrahydrocannabivarin]: the EC50 in assay [1] (EC50, displacement of [3H]CP55940, mouse brain membranes, n=4 to 8) was found to be 98.2 nM; in assay [1] (mean EC50, displacement of [3H]R-(+)-WIN55212, mouse brain membranes, n=4 to 7) it was 61.3 nM; in assay [1] (mean EC50, displacement of [3H]SR141716A, mouse brain membranes, n=4 to 6) it was 86.8 nM; in assay [5] (Mus musculus, compound alone, read-out: EC50, inhibition of electrically-evoked contractions) it was 12700 nM. For the same compound, the Ki came out at 75.4 nM in assay [1] (mouse brain membranes, Cheng & Prusoff, read-out: mean Ki, displacement of [3H]CP55940 from specific binding sites) and 62.8 nM in assay [2]. The Kb in assay [3] (agonist CP55940, SR141716A 10 nM) was 93.1 nM; in assay [3] (agonist R-(+)-WIN55212), 85.4 nM; in assay [4], 10.1 nM; in assay [5] (Mus musculus, twitch inhibitor 7-OH-CBD-DMH, THCV 100 nM, read-out: Mean apparent KB of THCV) it was > 100 nM; in assay [5] (Mus musculus, twitch inhibitor CP55940, THCV 100 nM, read-out: Mean apparent KB of THCV) it was 10.3 nM; in assay [5] (Mus musculus, twitch inhibitor R-(+)-WIN55212, THCV 10-1000 nM, Tallarida method, read-out: Mean apparent KB of THCV), 1.5 nM. For the same compound, the Kb was 96.7 nM in assay [5] (Mus musculus, twitch inhibitor THC, THCV 1000 nM, read-out: Mean apparent KB of THCV); 1.4 nM in assay [5] (Mus musculus, twitch inhibitor anandamide, THCV 10 nM, read-out: mean apparent KB for antagonism of anandamide); 1.2 nM in assay [5] (Mus musculus, twitch inhibitor anandamide, THCV 100 nM, read-out: Mean apparent KB of THCV); > 100 nM in assay [5] (Mus musculus, twitch inhibitor capsaicin, THCV 100 nM, read-out: Mean apparent KB of THCV); > 100 nM in assay [5] (Mus musculus, twitch inhibitor clonidine, THCV 100 nM, read-out: Mean apparent KB of THCV); 4.6 nM in assay [5] (Mus musculus, twitch inhibitor methanandamide, THCV 100 nM, read-out: Mean apparent KB of THCV). In addition, the “effect by itself on [35S]GTPγS binding” value is “did not affect” in assay [3] (mouse brain membranes, at antagonist concentrations) and “did not affect” in assay [4] (CHO-hCB2 cell membranes, at antagonist concentrations). In assay [5] (SR141716A 100 nM, n=7), the “inhibition of electrically-evoked contractions in presence of SR141716A” value is “not attenuated”. For the same compound, the “concentration above which electrically-evoked contractions were inhibited” value in assay [5] (SR141716A-independent manner) is given as “above 3 μM”. In addition, in assay [5] (THCV 100 nM, n=11), the “antagonism of THC-induced twitch inhibition” value is “Nor did 100 nM THCV antagonize”. The “inhibition of electrically-evoked contractions” value in assay [5] (at 1 μM) is “no detectable inhibitory effect”; in assay [5] (at 31.6 μM), “marked inhibition”. Also, the “contractions induced by β,γ-methylene-ATP” value in assay [6] is given as “did not induce any significant reduction”. Also, the “contractile responses to β,γ-methylene-ATP” value in assay [6] (at 31.6 μM) was “attenuated”. Further, in assay [7], the “contractions induced by phenylephrine” value is listed as “did not induce any significant reduction”. Further, the “contractile responses to phenylephrine hydrochloride” value in assay [7] (at 31.6 μM) is on record as “attenuated”.
Regarding `Cc1c(C(=O)c2cccc3ccccc23)c2cccc3c2n1[C@H](CN1CCOCC1)CO3` [R-(+)-WIN55212, reference compound], the “inhibition of electrically-evoked contractions” value in assay [5] (at 1 μM) was “markedly attenuated”. Further, the “contractions induced by β,γ-methylene-ATP” value in assay [6] is given as “did not decrease”. Besides, in assay [7], the “contractions induced by phenylephrine” value is on record as “did not decrease”.
